# Like-named read-outs stand apart in the source and are kept apart here.
# Legend:
# [1] = tested on: ACR-2R (ACR-2-containing acetylcholine receptor: UNC-38, UNC-63, ACR-12, ACR-2, ACR-3); details: agonist; 1 mM external CaCl2; 500 µM and 1 mM points excluded from fit (open-channel block)
# [2] = tested on: ACR-2R (ACR-2-containing acetylcholine receptor: UNC-38, UNC-63, ACR-12, ACR-2, ACR-3); details: agonist; 1 mM external CaCl2; 500 µM and 1 mM points excluded from fit (open-channel block); n2420 gain-of-function subunit ACR-2(V13′M)
compound,measurement,setting,value
CC(=O)OCC[N+](C)(C)C [acetylcholine],EC50,[1],14.1 ± 1.2 µM
same,EC50,[2],17.8 ± 1.4 µM
